SMILES strings stand for the structures.

This is an account of results in patent US10227331B2 (priority 2015, dated 2019).

The target of one data set is IMP-1 (Serratia marcescens, UniProt P52699). Description: biochemical. The class given is biochemical. To be noted: CCF2-FA substrate, 2 hours at 25° C; read-out: IMP-1 IC50. In outline:
(§1)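 Class B activity is measured in the presence of compound by fluorescence with CCF2-FA after a 2-hour incubation at 25° C. IC50 is taken from a 4-parameter fit of semi-logarithmic dose-response data.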

In the next data set the target is NDM-1 (Klebsiella pneumoniae, UniProt C7C422). Description: biochemical. Format: biochemical. The note with it: CCF2-FA substrate, 2 hours at 25° C; read-out: NDM-1 IC50. In outline: as §1
Sequence of NDM-1 (C7C422 whole entry, looked up, species assumed): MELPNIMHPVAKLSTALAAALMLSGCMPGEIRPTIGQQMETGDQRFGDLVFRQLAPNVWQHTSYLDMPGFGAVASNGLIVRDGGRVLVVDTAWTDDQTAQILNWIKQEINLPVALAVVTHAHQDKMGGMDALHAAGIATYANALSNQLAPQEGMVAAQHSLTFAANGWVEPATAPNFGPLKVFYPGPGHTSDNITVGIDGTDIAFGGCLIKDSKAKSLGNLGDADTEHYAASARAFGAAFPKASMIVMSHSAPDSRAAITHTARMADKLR
In the next data set the target is VIM-1 (Pseudomonas aeruginosa (strain ATCC 15692 / DSM 22644 / CIP 104116 / JCM 14847 / LMG 12228 / 1C / PRS 101 / PAO1), UniProt A0A0F7KYQ8). Description: biochemical. To be noted: CCF2-FA substrate, 2 hours at 25° C. In outline: as §1
For data set [1], the system named is Escherichia coli expressing NDM-1 (CLB30005, CLB30016). The class given is cell-based. The note with it: with imipenem 1 μg/ml, 95% inhibition of bacterial growth; for Escherichia coli MITC95: NDM-1 (CLB30016). In outline:
(§2)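 Clinical strains grown overnight on blood agar, then diluted 1:100 in 1.1× CAMHB and exposed to test compound with imipenem at 1 μg/ml. Incubation was 22–24 h at 35° C; growth was read by absorbance to find the compound concentration restoring imipenem susceptibility.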

The subject of data set [2] is Klebsiella pneumoniae expressing VIM-1 (IHMA599644). The class given is cell-based. The note with it: with imipenem 1 μg/ml, 95% inhibition of bacterial growth; for Klebsiella pneumoniae MITC95: VIM-1 (IHMA599644). In short, it runs like this: as §2
Data set [3] has as its system Serratia marcescens expressing IMP-1 (CL5741). The class given is cell-based. The note with it: with imipenem 1 μg/ml, 95% inhibition of bacterial growth; for Serratia marcescens MITC95: IMP-1 (CL5741). In short, it runs like this:
as §2

Data set [4] has as its system P. aeruginosa expressing IMP-1, efflux+ (MB9798). Format: cell-based, Pseudomonas aeruginosa. The note with it: for P. aeruginosa expressing IMP-1, efflux+ (MB9798) MITC95: imipenem at 2 μg/mL, in the presence of a class A, C, D serine β-lactamase inhibitor closely related to relebactam; for Efflux ratio: ratio MITC95 PA_9798/MITC95 PA_9799. The source says:
(§3) The strain background is Pseudomonas aeruginosa PAO1.

Data set [5] relates to P. aeruginosa expressing IMP-1, efflux− (MB9799). Briefly: Efflux: concentration of MBL inhibitor which restores susceptibility to imipenem. To be noted: imipenem at 2 μg/mL, in the presence of a class A, C, D serine β-lactamase inhibitor closely related to relebactam. Format: cell-based, Pseudomonas aeruginosa.
Text: as §3

Sequence of IMP-1 (P52699 whole entry, looked up, species assumed): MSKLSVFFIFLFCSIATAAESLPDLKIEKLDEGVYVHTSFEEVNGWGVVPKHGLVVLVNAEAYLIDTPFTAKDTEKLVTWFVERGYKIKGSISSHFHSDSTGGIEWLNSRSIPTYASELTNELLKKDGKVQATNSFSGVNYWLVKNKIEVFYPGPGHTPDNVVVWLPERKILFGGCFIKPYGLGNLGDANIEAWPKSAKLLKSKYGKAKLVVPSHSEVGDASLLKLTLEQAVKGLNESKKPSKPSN

On to `NS(=O)(=O)c1cccc(-c2ccc(S(=O)(=O)C3CNC3)c(S(N)(=O)=O)c2-c2nn[nH]n2)c1` [Example 247, 4-(Azetidin-3-ylsulfonyl)-2-(2H-tetrazol-5-yl)-[1,1′-biphenyl]-3,3′-disulfonamide], for which the half-maximal inhibitory concentration (IC50) is 3240 pM at IMP-1, 2010 pM at NDM-1 and 1830 pM on VIM-1. Moreover, the “Escherichia coli MITC95” value in data set [1] is 1.563 µM. Further, the “Klebsiella pneumoniae MITC95” value in data set [2] stood at 3.125 µM. For the same compound, the “Serratia marcescens MITC95” value in data set [3] worked out at 1.563 µM. For the same compound, in data set [4], the “P. aeruginosa expressing IMP-1, efflux+ (MB9798) MITC95” value came to 25 µM. The Efflux ratio in data set [4] is listed as 15.99. Moreover, in data set [5], the “P. aeruginosa expressing IMP-1, efflux− (MB9799) MITC95” value is 1.563 µM.

Turning to `NCCS(=O)(=O)c1ccc(-c2cccc3nc(C(=O)O)nn23)c(-c2nnn[nH]2)c1S(N)(=O)=O` [Example 304, 5-(4-((2-aminoethyl)sulfonyl)-3-sulfamoyl-2-(1H-tetrazol-5-yl)phenyl)-[1,2,4]triazolo [1,5-a]pyridine-2-carb oxylic Acid], the half-inhibitory concentration (IC50) is 5360 pM on IMP-1, 214 pM at NDM-1 and 478 pM against VIM-1. Also, the “Escherichia coli MITC95” value in data set [1] was 6.25 µM. The “Klebsiella pneumoniae MITC95” value in data set [2] was 50 µM. In data set [3], the “Serratia marcescens MITC95” value came out at 6.25 µM. In addition, the “P. aeruginosa expressing IMP-1, efflux+ (MB9798) MITC95” value in data set [4] came out at 25 µM. The Efflux ratio in data set [4] is recorded as 2.00. For the same compound, the “P. aeruginosa expressing IMP-1, efflux− (MB9799) MITC95” value in data set [5] stood at 12.5 µM.

As to `Cc1n[nH]c2cc(F)c(-c3ccc(S(=O)(=O)CCN)c(S(N)(=O)=O)c3-c3nnn[nH]3)cc12.O=C(O)C(F)(F)F` [Example 162, 2-((4-(6-fluoro-3-methyl-1H-indazol-5-yl)-2-sulfamoyl-3-(1H-tetrazol-5-yl)phenyl)sulfonyl)ethanaminium 2,2,2-trifluoroacetate], the IC50 turned out to be 2820 pM at IMP-1, 2780 pM on NDM-1 and 320 pM against VIM-1. For the same compound, the “Escherichia coli expressing NDM-1 (CLB30016) MITC95” value in data set [1] was found to be 3.125 µM. Besides, the “Klebsiella pneumoniae expressing VIM-1 (IHMA599644) MITC95” value in data set [2] came out at 6.25 µM. Besides, in data set [3], the “Serratia marcescens expressing IMP-1 (CL5741) MITC95” value was found to be 3.125 µM. Moreover, in data set [4], the “P. aeruginosa expressing IMP-1, efflux+ (MB9798) MITC95” value stood at 100 µM. Besides, the Efflux ratio in data set [4] turned out to be 63.98. For the same compound, the “P. aeruginosa expressing IMP-1, efflux− (MB9799) MITC95” value in data set [5] stood at 1.563 µM.

`CS(=O)(=O)c1ccc(-c2cnc3ccccn23)c(-c2nn[nH]n2)c1S(N)(=O)=O` [Example 238, 3-(Imidazo[1,2-a]pyridin-3-yl)-6-(methylsulfonyl)-2-(2H-tetrazol-5-yl) benzenesulfonamide]: the half-inhibitory concentration (IC50) stood at 332 pM on IMP-1, 862 pM on NDM-1 and 201 pM against VIM-1. In addition, the “Escherichia coli expressing NDM-1 (CLB30016) MITC95” value in data set [1] was 3.125 µM. Besides, the “Klebsiella pneumoniae expressing VIM-1 (IHMA599644) MITC95” value in data set [2] turned out to be 6.25 µM. Further, the “Serratia marcescens expressing IMP-1 (CL5741) MITC95” value in data set [3] amounted to 3.125 µM. In addition, the “P. aeruginosa expressing IMP-1, efflux+ (MB9798) MITC95” value in data set [4] stood at 50 µM. Besides, in data set [4], the Efflux ratio turned out to be 31.99. The “P. aeruginosa expressing IMP-1, efflux− (MB9799) MITC95” value in data set [5] worked out at 1.563 µM.

Consider `Nc1nc2cc(-c3ccc(SC4CNC4)c(S(N)(=O)=O)c3-c3nn[nH]n3)ccc2[nH]1` [Example 1, 3-(2-amino-1H-benzo[d]imidazol-5-yl)-6-(azetidin-3-ylthio)-2-(2H-tetrazol-5-yl)benzenesulfonamide], for which the half-maximal inhibitory concentration (IC50) came out at 422000 pM at IMP-1, 20800 pM on NDM-1 and 141000 pM against VIM-1. The “Escherichia coli expressing NDM-1 (CLB30016) MITC95” value in data set [1] came out at 0.3906 µM. Also, the “Klebsiella pneumoniae expressing VIM-1 (IHMA599644) MITC95” value in data set [2] worked out at 6.25 µM. Further, in data set [3], the “Serratia marcescens expressing IMP-1 (CL5741) MITC95” value was determined as 6.25 µM. In data set [4], the “P. aeruginosa expressing IMP-1, efflux+ (MB9798) MITC95” value was found to be 50 µM. Besides, the Efflux ratio in data set [4] turned out to be 8.00. In addition, in data set [5], the “P. aeruginosa expressing IMP-1, efflux− (MB9799) MITC95” value came out at 6.25 µM.

Take `NC(=O)c1ccc(-c2ccc(S(=O)(=O)C3CNC3)c(S(N)(=O)=O)c2-c2nn[nH]n2)c2nc(N)sc12` [Example 39, 2-amino-4-(4-(azetidin-3-ylsulfonyl)-3-sulfamoyl-2-(2H-tetrazol-5-yl)phenyl)benzo[d]thiazole-7-carboxamide]: the IC50 at IMP-1 came out at 276 pM; on NDM-1, 30.3 pM; against VIM-1, 129 pM. In addition, in data set [1], the “Escherichia coli expressing NDM-1 (CLB30016) MITC95” value came out at 1.563 µM. Besides, the “Klebsiella pneumoniae expressing VIM-1 (IHMA599644) MITC95” value in data set [2] came out at 3.125 µM. Further, in data set [3], the “Serratia marcescens expressing IMP-1 (CL5741) MITC95” value was 3.125 µM. Also, the “P. aeruginosa expressing IMP-1, efflux+ (MB9798) MITC95” value in data set [4] was found to be 0.7813 µM. Besides, in data set [4], the Efflux ratio is given as 0.50. For the same compound, the “P. aeruginosa expressing IMP-1, efflux− (MB9799) MITC95” value in data set [5] turned out to be 1.563 µM.

Turning to `NCCS(=O)(=O)c1ccc(-c2cccc3[nH]c(C(F)(F)F)nc23)c(-c2nn[nH]n2)c1S(N)(=O)=O` [Example 308, 6-((2-aminoethyl)sulfonyl)-2-(2H-tetrazol-5-yl)-3-(2-(trifluoromethyl)-1H-benzo[d]imidazol-4-yl)benzenesulfonamide], the values for the IC50 at IMP-1, at NDM-1 and on VIM-1 were 560 pM, 170 pM and 219 pM, respectively. Further, the “Escherichia coli MITC95” value in data set [1] was determined as 3.125 µM. Further, the “Klebsiella pneumoniae MITC95” value in data set [2] came out at 3.125 µM. Moreover, the “Serratia marcescens MITC95” value in data set [3] was 3.125 µM. Also, in data set [4], the “P. aeruginosa expressing IMP-1, efflux+ (MB9798) MITC95” value was found to be 6.25 µM. For the same compound, in data set [4], the Efflux ratio is on record as 4.00. The “P. aeruginosa expressing IMP-1, efflux− (MB9799) MITC95” value in data set [5] came out at 1.563 µM.

`Nc1n[nH]c2cc(-c3ccc(S(=O)(=O)C4CNC4)c(S(N)(=O)=O)c3-c3nn[nH]n3)ccc12` [Example 20]: the figures for the IC50 on IMP-1, at NDM-1 and against VIM-1 were 1190 pM, 291 pM and 168 pM, respectively. The “Escherichia coli expressing NDM-1 (CLB30016) MITC95” value in data set [1] came to 3.125 µM. Moreover, in data set [2], the “Klebsiella pneumoniae expressing VIM-1 (IHMA599644) MITC95” value came out at 3.125 µM. For the same compound, in data set [3], the “Serratia marcescens expressing IMP-1 (CL5741) MITC95” value came to 1.563 µM. In addition, the “P. aeruginosa expressing IMP-1, efflux+ (MB9798) MITC95” value in data set [4] was found to be 3.125 µM. Also, the Efflux ratio in data set [4] worked out at 2.00. For the same compound, in data set [5], the “P. aeruginosa expressing IMP-1, efflux− (MB9799) MITC95” value was 1.563 µM.

With `C[C@H](CN)S(=O)(=O)c1ccc(-c2cccc3sc(N)nc23)c(-c2nn[nH]n2)c1S(N)(=O)=O` [Example 285, 3-(2-aminobenzo[d]thiazol-4-yl)-6-((R)-1-aminopropan-2-ylsulfonyl)-2-(2H-tetrazol-5-yl)benzenesulfonamide], the results for the half-inhibitory concentration (IC50) on IMP-1, on NDM-1 and against VIM-1 were 534 pM, 370 pM and 364 pM, respectively. For the same compound, the “Escherichia coli MITC95” value in data set [1] came to 3.125 µM. Besides, the “Klebsiella pneumoniae MITC95” value in data set [2] turned out to be 1.563 µM. The “Serratia marcescens MITC95” value in data set [3] is 1.563 µM. Also, the “P. aeruginosa expressing IMP-1, efflux+ (MB9798) MITC95” value in data set [4] came out at 3.125 µM. In addition, in data set [4], the Efflux ratio was 4.00. The “P. aeruginosa expressing IMP-1, efflux− (MB9799) MITC95” value in data set [5] worked out at 0.7813 µM.

Consider `Nc1nc2cccc(-c3ccc(S(=O)(=O)C4CNC4)c(S(N)(=O)=O)c3-c3nn[nH]n3)n2n1` [Example 214, 3-(2-amino-[1,2,4]triazolo[1,5-a]pyridin-5-yl)-6-(azetidin-3-ylsulfonyl)-2-(2H-tetrazol-5-yl)benzenesulfonamide], for which the IC50 on IMP-1 came to 3320 pM; on NDM-1, 139 pM; against VIM-1 it was 221 pM. Further, the “Escherichia coli expressing NDM-1 (CLB30016) MITC95” value in data set [1] stood at 3.125 µM. Further, the “Klebsiella pneumoniae expressing VIM-1 (IHMA599644) MITC95” value in data set [2] is 6.25 µM. Moreover, the “Serratia marcescens expressing IMP-1 (CL5741) MITC95” value in data set [3] came to 3.125 µM. The “P. aeruginosa expressing IMP-1, efflux+ (MB9798) MITC95” value in data set [4] was found to be 3.125 µM. Besides, the Efflux ratio in data set [4] is recorded as 2.00. The “P. aeruginosa expressing IMP-1, efflux− (MB9799) MITC95” value in data set [5] worked out at 1.563 µM.

By IC50 is commonly meant the concentration at which inhibition is half-maximal.
